By IC50 is commonly meant the concentration at which inhibition is half-maximal.

Like-named read-outs stand apart in the source and are kept apart here. Bounds are passed on as bounds.

In this assay the target is GST tagged IRAK-4 (Homo sapiens (Human), UniProt Q9NWZ3). Kind of assay: IRAK-4 Kinase Assay (IMAP fluorescence polarization). In kind it is biochemical. An outline of the steps: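 Activity was read by IMAP fluorescence polarization, where phosphopeptide binding to M(III) nanoparticles raises FP. The 30-minute, 25° C reaction used 100 μM ATP, 100 nM RP7030 substrate and 0.5 nM GST-IRAK-4 in pH 7.2 Tris buffer with MgCl2, DTT and Tween 20.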
GST tagged IRAK-4, sequence (Q9NWZ3 whole entry): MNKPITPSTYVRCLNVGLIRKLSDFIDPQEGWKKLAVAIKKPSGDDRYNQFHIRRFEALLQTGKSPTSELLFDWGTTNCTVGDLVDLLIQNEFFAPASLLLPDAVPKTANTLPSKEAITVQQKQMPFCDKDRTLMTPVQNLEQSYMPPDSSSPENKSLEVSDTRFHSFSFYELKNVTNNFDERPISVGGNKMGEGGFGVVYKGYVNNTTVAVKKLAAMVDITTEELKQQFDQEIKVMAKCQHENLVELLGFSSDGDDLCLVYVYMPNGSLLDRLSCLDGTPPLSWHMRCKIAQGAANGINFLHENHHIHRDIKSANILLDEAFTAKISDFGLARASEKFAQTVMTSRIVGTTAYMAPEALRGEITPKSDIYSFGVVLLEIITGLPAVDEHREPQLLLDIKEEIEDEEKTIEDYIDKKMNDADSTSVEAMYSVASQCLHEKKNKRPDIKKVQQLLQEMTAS

“N-(3-(1-methylpiperidin-4-yl)-1-(5-methylpyridin-2-yl)-1H-pyrazol-5-yl)pyrazolo[1,5-a]pyrimidine-3-carboxamide [Example 399]” came in with an IC50 of less than 0.1 µM.

As for “N-(3-(4-(aminomethyl)cyclohexyl)-1-(p-tolyl)-1H-pyrazol-5-yl)pyrazolo[1,5-a]pyrimidine-3-carboxamide [Example 184]”, the IC50 is less than 0.1 µM.

In the case of “methyl((4-(5-(pyrazolo[1,5-a]pyrimidine-3-carboxamido)-1-(p-tolyl)-1H-pyrazol-3-yl)cyclohexyl)methyl)carbamate [Example 183]”, under “100 μM ATP, 30 minutes at 25° C., μM”, the IC50 was less than 1 µM.

These data come from patent US9169260B2 (MERCK SHARP & DOHME CORP., priority 2011, dated 2015).
